Data taken from ChEMBL document CHEMBL1157539, “Thousands of chemical starting points for antimalarial lead identification” (Nature, 2010).

tested on: Plasmodium falciparum; test: GSK_TCMDC: Inhibition of Plasmodium falciparum 3D7 in whole erythrocytes, using parasite LDH activity as an index of growth.; type: functional, organism-based; conditions: Plasmodium falciparum, 3D7

Compound	XC50 [nM]
CN(C)c1nc(NCc2ccccc2)nc(N/N=C/c2cc([N+](=O)[O-])ccc2O)n1	685
COc1ccc2nc(C)cc(N/N=C/c3ccc([N+](=O)[O-])cc3)c2c1	695
Cc1cc(C)c2ncc(C(=O)O)c(O)c2c1	878
O=C(NC1CCN(Cc2ccccc2)CC1)c1ccc2c(=O)n(Cc3ccc(Cl)cc3)c(=S)[nH]c2c1	998
Oc1nc(Cc2ccccc2)nc2ccc(Cl)cc12	879
Cc1cnc(C(=O)Nc2cccc(-c3ccc(-c4nc5cc(F)ccc5[nH]4)cc3)c2)cn1	637
CC1CCC2(CC1)N=C(N)N=C(N)N2OCc1ccc(Br)c2ccccc12 (centres undefined)	216
CNC(=O)C1Cc2c([nH]c3cc(Br)ccc23)C2(CCN(CCc3ccccc3)CC2)N1 (centres undefined)	721
Cc1cc(N2CCOCC2)nc(Nc2ccc(NC(=O)Nc3ccc(F)cc3)cc2)n1	495
COc1c(CNCCCCCCNCc2c(OC)c(OC)c3ccccc3c2OC)c(OC)c2ccccc2c1OC	956
O=C(NCc1ccc(F)cc1)Nc1ccc(-c2cccc(-c3nc4cc(C(F)(F)F)ccc4[nH]3)c2)cc1	946
Cn1nc(-c2cccc(CN[C@@H]3CCc4ccc(O)cc43)c2)c2cnc(NC3CCCC3)nc21	736
CCc1ccc(S(=O)(=O)Nc2ccc(CCN(C)C3CCN(C)CC3)cc2)cc1	1060
Cc1ccc(Cn2ncc(N3CCCNCC3)c(Cl)c2=O)cc1NC(=O)Nc1ccc(-c2ccccc2)cc1	625
Cc1cc(Br)c(OCCCON2C(=N)N=C(N)NC2(C)C)c(Br)c1	3.2
N=C(Cc1ccc(Cl)cc1)NCCN1CCCCCC1	742
O=C1Nc2ccc3ncccc3c2/C1=C/Nc1ccc(Cn2ccnc2)cc1	659
CC1CN(Cc2ccc(-c3ccc(-c4nc5ccccc5[nH]4)cc3)cc2)CC(C)O1 (centres undefined)	523
c1ccc(C2CCN(Cc3ccc(-c4c[nH]c5nc(NC6CCCC6)ncc45)cc3)CC2)cc1	1010
COc1ccc(-c2c(C(F)(F)F)nn(C)c2NC(=O)Nc2ccc(F)cc2F)cc1	797
Cc1cc(=NN=Cc2ccccc2)c2cc(C(F)(F)F)ccc2[nH]1	153
C=CCOC(=O)N1CCC(CNCc2ccc(-c3ccc(-c4nc5cc(C(F)(F)F)ccc5[nH]4)cc3)cc2)C1 (centres undefined)	150
CC(C)(C)c1ccc(CNC(=O)c2cc(CNC3CCC(N)CC3)ccc2O)cc1 (centres undefined)	1030
CCOC(C(=O)OCCN(C(C)C)C(C)C)(c1ccccc1)c1ccccc1	874
Cc1cc(C2CCN(CCCCNC(=O)c3ccc(NC(=O)c4ccc(Cl)cc4)cc3)CC2)c(C)cc1OC(C)C	744

Compound	XC50 [nM]
COc1c(CN2CCCC2)cccc1-c1cc2c(-c3ccc(C(=O)O)c(C(C)C)c3)ccnc2[nH]1	439
COc1ccc(N2CCN(CCCCNC(=O)c3ccc(NC(=O)c4ccc(OC(F)(F)F)cc4)cc3)CC2)c(OC)c1	578
Cc1ccc(CN2CCCCC(NC(=O)c3cc4ccccc4s3)C2)cc1 (centres undefined)	900
O=C(c1cccs1)N1CCN(c2ccc([N+](=O)[O-])c(NC3CC3)c2)CC1	767
Cc1ccccc1N1CCN(c2ncc(C(=O)NC3CC3)cc2Cl)CC1	628
COc1ccc2nccc([C@@H](O)CN3CCC(NCCOc4ccncc4)CC3)c2c1	690
CCCc1cc(Cc2cnc(N)nc2N)cc(CCC)c1OC	893
O=S(=O)(NCCN1CCCC1)c1cccc(-c2ccc(CNCc3ccc(F)cc3)cc2)c1	234
Cc1nnsc1C(=O)Nc1ccc(-c2ccc(-c3nc4cccc(C)c4[nH]3)s2)cc1	594
O=C(NC1CCC1)C1CCN(C(c2ccc(Cl)cc2)c2ccc(Cl)cc2)CC1	562
CC(C)c1cc(Oc2c(I)cc(CCCc3ncc[nH]3)cc2I)ccc1O	1120
CC(C)N1CCCN(C(=O)C2CCN(c3ccc(C(=O)N4CCCC4)cn3)CC2)CC1	1060
Cc1ccc(C)c2sc(N3CCN(C(=O)c4ccc([N+](=O)[O-])o4)CC3)nc12	819
ON=C1c2cc(OCCN3CCCCC3)c(Cl)cc2-c2cc(Cl)c(OCCN3CCCCC3)cc21	703
Cc1cccc2nc(-c3cccc(-c4cccc(NC(=O)Nc5ccc(Cl)c(Cl)c5)c4)c3)[nH]c12	375
CCC(=O)N[C@@H]1CN[C@@H](C#Cc2cc3c(Nc4ccc(OCc5cccc(F)c5)c(Cl)c4)ncnc3s2)C1	1120
COc1ccc(-c2nc3c(N)nc(N)nc3nc2-c2ccccc2Cl)cc1.COc1ccc(-c2nc3nc(N)nc(N)c3nc2-c2ccccc2Cl)cc1	549
CN(C)CCNc1nccc(N2CCc3ncnc(Nc4ccc(OCc5cccc(F)c5)c(Cl)c4)c3C2)n1	138
Cc1cccc2nc(-c3ccc(-c4cccc(CNCc5cccc(N)c5)c4)s3)[nH]c12	517
Cc1cc(-c2ccc(CNCCc3cccs3)cc2)ccc1S(=O)(=O)NCc1ccccc1	1140
COc1cc2c(Nc3ccc(Br)cc3F)ncnc2cc1OCC1CCN(C)CC1	770
Cc1cccc2nc(-c3ccc(-c4ccc(CNCC5CCCO5)cc4)s3)[nH]c12 (centres undefined)	739
O=C(NC(CCCN1CCC(c2ccccc2)CC1)c1ccc(Cl)c(Cl)c1)c1cc(C(F)(F)F)cc(C(F)(F)F)c1 (centres undefined)	865
COc1ccc(O)c(Cc2cnc3nc(N)[nH]c(=O)c3c2C)c1	234
CN(c1ccccc1)c1ccnc(NC(=N)Nc2ccc(Cl)cc2)n1	1090

Compound	XC50 [nM]
COc1ccc(CC(C)NCC(O)c2cccc(C(F)(F)F)c2)cc1 (centres undefined)	1580
CCCN(Cc1nnc(-c2cccs2)o1)C(=O)CSc1nnnn1-c1ccc(C)c(C)c1	582
Cn1ccc(-c2cccc(Nc3ccnc4cc(-c5nccs5)ccc34)c2)n1	405
CCNc1cc(C(=O)N[C@@H](Cc2ccccc2)[C@H](O)CNCc2cc(OC)cc(OC)c2)cc(N2CCCS2(=O)=O)c1	43
CCCCOc1cc2c(cc1OCC)C(C=Cc1ccc(Cl)cc1Cl)=NCC2	403
c1ccc2[nH]c(-c3ccc(-c4ccc(CNC5CC5)cc4)s3)nc2c1	1050
Cc1cc(N[C@@H](CC(C)C)C(=O)NCCOc2ccccc2)nc(NCC2CCCCC2)n1	972
COc1ccc2nccc([C@@H](O)CN3CCC(c4cc(-c5ccc(Cl)cc5)[nH]n4)CC3)c2n1	737
COc1ccc(-c2cccc(NC(=O)c3cccc(Cl)c3)c2)cc1CN1CCCN(C)CC1	231
CC(C)N1CCN(c2ccc(OCCCCN3CCN(c4cccc(Cl)c4Cl)CC3)c(C(F)(F)F)c2)CC1	815
COc1cccc(-c2ccc(C(=O)NC3CCN(Cc4ccc(N(C)C)cc4)CC3)s2)c1	1390
Clc1cc(Cl)c2cc(CNCCCNc3ccc4ccccc4n3)[nH]c2c1	339
O=C(Nc1ccc(CCNC2=NCCN2)cc1)Nc1ccc(CCNC2=NCCN2)cc1	789
O=C(/C=C/c1c(Cl)cccc1Cl)NC1CCC(CN2CCC(c3c[nH]c4ccncc34)CC2)CC1 (centres undefined)	158
CN(C)C(=O)c1ccc(CN(Cc2ccc(OC(C)(C)C)cc2)Cc2ccc3c(c2)OCCO3)cc1	829
CNc1ccc(CNCc2ccc(-c3ccc(-c4nc5cccc(C)c5[nH]4)cc3)cc2)cc1	319
COc1ccc(-c2cnc3[nH]cc(-c4ccc(CCC(=O)O)cc4)c3c2)cn1	773
CCN(CC)S(=O)(=O)n1ncc2c3c(N)nc(N)nc3ccc21	54.9
Cc1occc1C(=O)Nc1nc(-c2ccccn2)nc2ccsc12	899
C=C[C@H]1CN2CC[C@H]1C[C@H]2[C@H](O)c1cc(-c2ccc(Cl)cc2)nc2ccc(OC)cc12	30.3
COc1ccc(Cl)cc1C(=O)Nc1ccc(-c2nc3ccccc3[nH]2)cc1	774
CC(C)(C)c1ccccc1SC1=C(O)CC2(CCNCC2)OC1=O	884
Clc1cc(Nc2ncnc3sc(C#C[C@H]4CCCN4)cc23)ccc1OCc1cccnc1Cl	569
Cc1cccc2nc(-c3cccc(-c4ccc(NC(=O)C(C)CN5CCOCC5)cc4)c3)[nH]c12 (centres undefined)	689
O=C(c1ccccc1[N+](=O)[O-])N(Cc1ccccc1)c1ccccn1	192

Compound	XC50 [nM]
O=C(/C=C/c1ccsc1)NC1CCC(CN2CCC(c3c[nH]c4ccccc34)CC2)CC1 (centres undefined)	1120
Brc1ccc(C=NNc2nc3ccccc3[nH]2)cc1	700
Cc1[nH]c(C)c(-c2ccc(-c3cccc(C(F)(F)F)c3)nc2)c(=O)c1Br	140
COc1cc2c(cc1OC)CC(NCc1ccc(-c3ccc4nc[nH]c4c3)cc1)C2	846
COc1ccc(CC(C)NCC(O)c2cccc(Br)c2)cc1 (centres undefined)	961
CN(C)CCN(C)C(=O)c1cc(-c2ccncc2)c(-c2ccc(Cl)c(O)c2)o1	1050
CCOCCCn1c(=N)c(C(=O)NCc2ccc(F)cc2)cc2c(=O)n3cccc(C)c3nc21	526
Nc1nc(Nc2cccc(O)c2)nc2ccccc12	791
CCNc1c2ccc(Cl)cc2nc2ccc(OC)cc12	843
Nc1nc(N)c2cc(C(F)(F)F)ccc2n1	1130
Cc1cccc(C(O)CNc2ccnc(Nc3cccc(-c4csc(C)n4)c3)n2)c1 (centres undefined)	675
Cc1cc(N[C@@H](Cc2ccccc2)C(=O)Nc2ccccc2)nc(NCCc2ccccn2)n1	874
CC(=O)Nc1ccc(Nc2cc(C)nc(Nc3ccc(NC(C)=O)cc3)n2)cc1	894
COc1cccc(C(=O)C2CC2CN2CC=C(c3c[nH]c4ccc(OC)nc34)CC2)c1 (centres undefined)	526
CC(CN(C)C)C(=O)Nc1ccc(-c2ccc(-c3nc4cc(C(F)(F)F)ccc4[nH]3)cc2)cc1 (centres undefined)	747
CC(CN(C)C)C(=O)Nc1cccc(-c2ccc(-c3nc4cc(F)ccc4[nH]3)s2)c1 (centres undefined)	801
CC12CCC(=O)N1C(C(=O)Nc1cccc(C(=O)Nc3cccc(C(F)(F)F)c3)c1)CS2 (centres undefined)	358
Cc1ccccc1C1CCN(C2CCC(NC(=O)/C=C/c3cccc(Cl)c3Cl)CC2)CC1 (centres undefined)	1030
Cc1cc2nc(-c3cc(-c4cccc(NS(C)(=O)=O)c4)cnc3N)[nH]c2cc1C	672
COc1ccccc1COc1c(C)nc(N)nc1N	706
COc1ccc(C2CCN(CCCNC(=O)c3ccc(NC(=O)c4ccc(Cl)cc4)cc3)CC2)c(OC)c1	763
Cc1ccccc1C1CCN(C2CCC(NC(=O)/C=C/c3cccc(Cl)c3)CC2)CC1 (centres undefined)	891
Cc1cc2c(cc1C(F)(F)F)N(C(=O)Nc1ccc(OCCN(C)C)c(C(F)(F)F)c1)CC2	905
COc1nc2c(CCN3CC[C@@H](NCc4cc(C#N)c5c(c4)CCO5)[C@@H](O)C3)ccnc2cc1F	1030
